# Where two headings read alike, the source gives them in different places.
# Legend:
# Format in all cases: cell-based
# MCF7 cells [1] = experiment: Mammosphere formation assay (CSC activity/propagation); settings: for IC50: Homo sapiens, MCF7, Valproic acid-augmented conditions, read-out: IC-50, Valproic acid-augmented CSC propagation; for IC50 / Valproic acid-augmented CSC propagation (mammosphere formation): FIG. 12C; for Valproic acid-augmented CSC propagation (mammosphere formation): glycolysis inhibitors; for basal and Valproic acid-augmented CSC propagation (mammosphere formation): FIG. 12A-B
# Method: Briefly, a single cell suspension of MCF7 cells previously exposed to normoxia (21% O2) or hypoxia (1% O2) for 6 h, 72 h or 96 h was prepared using enzymatic (lx Trypsin-EDTA, Sigma Aldrich) and manual disaggregation (25-gauge needle). Cells were plated at a density of 500 cells/cm^2 in mammosphere medium (DMEM-F12/B27/20-ng/ml EGF/PenStrep) in nonadherent conditions, in culture dishes coated with (2-hydroxyethylmethacrylate) (poly-HEMA, Sigma), in the presence of treatments. Cells were grown for 5 days and maintained in a humidified incubator at 37° C. at an atmospheric pressure in 5% (v/v) carbon dioxide/air. After five days of culturing, spheres greater than 50 μm in diameter were counted using an eye piece graticule, and the percentage of cells plated which formed spheres was calculated. Mammosphere assays were performed in triplicate and repeated three times independently.
# CSC propagation = experiment: IC-50s of metabolic agents for inhibiting CSC propagation (Table 3); settings: read-out: IC-50 for inhibiting CSC propagation
# Method: Glycolysis is required to provide additional TCA cycle intermediates for the mitochondrial processing of Acetyl-CoA. […] Briefly, 2-deoxy-D-glucose (2-DG) or ascorbic acid were dissolved in culture medium. […] Bonuccelli et al. Oncotarget, 8: 20667-20678 (2017). […] 15, 2017, and Patent Cooperation Treaty (PCT) Patent Application PCT/US2018/022403, filed Mar. 14, 2018, the entireties of which are incorporated herein by reference; mitoketoscins, such as those disclosed in U.S. Provisional Patent Application No. 62/524,829, filed Jun. 26, 2017, the entirety of which is incorporated herein by reference; mitoflavoscins, such as those disclosed in U.S. Provisional Patent Application No. 62/576,287, filed Oct. 24, 2017, the entirety of which is incorporated herein by reference; TPP-compounds (e.g., 2-butene-1,4-bis-TPP), such as those disclosed in U.S. Provisional Patent Application No. 62/590,432, filed Nov. 24, 2017, the entirety of which is incorporated herein by reference; mDIVI1, such as those disclosed in U.S. Provisional Patent Application No. 62/608,065, filed Dec. 20, 2017, the entirety of which is incorporated herein by reference; CAPE (caffeic acid phenyl ester); antimitoscins, such as those disclosed in 62/508,702, filed May 19, 2017, the entirety of which is incorporated herein by reference; repurposcins such as those disclosed in U.S. Provisional Patent Application No. 62/593,372, filed Dec. 1, 2017, the entirety of which is incorporated herein by reference; other known mitochondrial inhibitors.
# MCF7 cells [2] = experiment: Mitochondrial mass by FACS with MitoTracker Deep-Red-FM; settings: increasing concentrations 0, 1, 2.5 and 5 mM; FIG. 11A
# Method: The inventors examined the effects of chronic hypoxia and oxidative stress on the propagation of breast CSCs using MCF7 cells as a model system. It should be appreciated that other model systems may be used. Briefly, MCF7 cells were obtained from ATCC and cultured in DMEM (Sigma Aldrich). For hypoxic testing, MCF7 cells were cultured in low glucose DMEM in a multi-gas N2/CO2 hypoxic chamber at 1% 02. In parallel, MCF7 cells were cultured in low glucose DMEM at 21% 02 to serve as a normoxic control. […] Next, the MCF7 cells were trypsinized and subjected to fluorescence-activated cell sorting (FACS) with MitoTracker Deep-Red-FM (Life Technologies). MitoTracker Deep Red localizes to mitochondria regardless of mitochondrial membrane potential. Cells were incubated with pre-warmed MitoTracker staining solution (diluted in PBS/CM to a final concentration of 10 nM) for 30-60 min at 37° C. All subsequent steps were performed in the dark. Cells were washed in PBS, harvested, re-suspended in 300 μL of PBS and then analyzed by flow cytometry (Fortessa, BD Bioscience). Data analysis was performed using FlowJo software (Tree star Inc.). […] FIG. 2F is a representative FACS tracing showing 96 hours of hypoxia increased mitochondrial mass. The effects of hypoxia treatment were confirmed using immunoblot analysis with TOMM20, a marker of mitochondrial mass.
# MCF7 cells [3] = experiment: ALDH activity by FACS (ALDEFLUOR kit); settings: 2.5 mM; FIGS. 11C-D
# Method: The present approach further includes methods of analyzing the effects of hypoxia on CSCs by examining relative changes of CSC markers. For example, aldehyde dehydrogenase (ALDH) activity is routinely used as a marker for CSCs. It should be appreciated by those in the art that other CSC markers may be used. ALDH activity was assessed by FACS analysis in MCF7 cells cultured for 72 hours in normoxia (21% 02) or hypoxia (1% 02). The ALDEFLUOR kit (StemCell Technologies) was used to isolate the population with high ALDH enzymatic activity by FACS (Fortessa, BD Bioscence). Briefly, 1×10^5 MCF7 cells were incubated in 1 ml ALDEFLUOR assay buffer containing ALDH substrate (5 μl/ml) for 40 minutes at 37° C. In each experiment, a sample of cells was stained under identical conditions with 30 μM of diethylaminobenzaldehyde (DEAB), a specific ALDH inhibitor, as a negative control. The ALDEFLUOR-positive population was established in according to the manufacturer's instructions and was evaluated in 3×10^4 cells. Data analysis was performed using FlowJo software (Tree star Inc.).
compound,measurement,setting,value
"O=CC[C@@H](O)[C@H](O)[C@H](O)CO [2-DG, 2-deoxy-D-glucose]",IC50,MCF7 cells [1],1000 µM
same,Valproic acid-augmented CSC propagation (mammosphere formation),MCF7 cells [1],sufficient to inhibit
same,IC50,"CSC propagation; Table 3, values in mM",10 to 20 mM
O=C1C(O)=C([C@H]2CC[C@H](c3ccc(Cl)cc3)CC2)C(=O)c2ccccc21 [Atovaquone],IC50,"CSC propagation; Table 3, values in mM",0.001 mM
CC[C@H]1OC(=O)[C@H](C)[C@@H](O[C@H]2C[C@@](C)(OC)[C@@H](O)[C@H](C)O2)[C@H](C)[C@@H](O[C@@H]2O[C@H](C)C[C@H](N(C)C)[C@H]2O)[C@](C)(O)C[C@@H](C)CN(C)[C@H](C)[C@@H](O)[C@]1(C)O [Azithromycin],IC50,"CSC propagation; Table 3, values in mM",0.05 to 0.1 mM
COc1nc2ccc(Br)cc2cc1[C@@H](c1ccccc1)[C@@](O)(CCN(C)C)c1cccc2ccccc12 [Bedaquiline],IC50,"CSC propagation; Table 3, values in mM",0.001 mM
COc1ccc2cc3[n+](cc2c1OC)CCc1cc2c(cc1-3)OCO2 [Berberine],IC50,"CSC propagation; Table 3, values in mM",0.001 mM
CCN(CC)CCCC(C)Nc1ccnc2cc(Cl)ccc12 (stereo not shown) [Chloroquine],IC50,CSC propagation,< 0.025 mM
C[C@H]1c2cccc(O)c2C(=O)C2=C(O)[C@]3(O)C(=O)C(C(N)=O)=C(O)[C@@H](N(C)C)[C@@H]3[C@@H](O)[C@@H]21 [Doxycycline],IC50,"CSC propagation; Table 3, values in mM",0.005 mM
CCOC(=O)[C@@]1(CCCCCCOc2ccc(Cl)cc2)CO1 [Etomoxir],basal and Valproic acid-augmented CSC propagation (mammosphere formation),MCF7 cells [1],inhibit
same,IC50,"CSC propagation; Table 3, values in mM",< 0.2 mM
CCc1c2c(nc3ccc(OC(=O)N4CCC(N5CCCCC5)CC4)cc13)-c1cc3c(c(=O)n1C2)COC(=O)[C@]3(O)CC [Irinotecan],IC50,"CSC propagation; Table 3, values given with nM",0.0005 mM
O=C(Nc1ccc([N+](=O)[O-])cc1Cl)c1cc(Cl)ccc1O [Niclosamide],IC50,"CSC propagation; Table 3, values given with nM",0.0001 mM
CC(=O)O[C@H]1C(=O)[C@@]2(C)[C@H]([C@H](OC(=O)c3ccccc3)[C@]3(O)C[C@H](OC(=O)[C@H](O)[C@@H](NC(=O)c4ccccc4)c4ccccc4)C(C)=C1C3(C)C)[C@]1(OC(C)=O)CO[C@@H]1C[C@@H]2O [Paclitaxel],CSC resistance to treatment (measured by mammosphere formation),"MCF7 cells [1]; MCF7 cells, FIGS. 5A-B",a fraction of CSCs is resistant
C1CCC(C(CC2CCCCN2)C2CCCCC2)CC1 (stereo not shown) [Perhexiline],basal and Valproic acid-augmented CSC propagation (mammosphere formation),MCF7 cells [1],inhibit
same,IC50,"CSC propagation; Table 3, values given with nM",< 0.0001 mM
CNC(=O)c1cc(Oc2ccc(NC(=O)Nc3ccc(Cl)c(C(F)(F)F)c3)cc2)ccn1 [Sorafenib],IC50,"CSC propagation; Table 3, values in mM",0.0005 to 0.001 mM
CC(C)(C)C(O)/C=C/c1ccc2c(c1)OCO2 (stereo not shown) [Stiripentol],IC50,"CSC propagation; Table 3, values in mM",0.01 to 0.05 mM
CCCC(CCC)C(=O)O [Valproic acid],mammosphere formation,"MCF7 cells [1]; MCF7 cells, FIG. 11B",increases
same,increase in mitochondrial mass,MCF7 cells [2],up to 3 fold
same,increase in ALDH activity,MCF7 cells [3],> 1.5 fold
"O=C1O[C@H]([C@@H](O)CO)C(O)=C1O [Vitamin C, ascorbic acid]",IC50,MCF7 cells [1],~500 µM
same,Valproic acid-augmented CSC propagation (mammosphere formation),MCF7 cells [1],sufficient to inhibit
same,potency under Valproic acid-augmented conditions compared to basal conditions,MCF7 cells [1]; versus previously published results under basal conditions (Bonuccelli et al. 2017),two times as potent
same,IC50,"CSC propagation; Table 3, values in mM",1 mM

# Reference: patent US11229657B2, “Targeting hypoxic cancer stem cells (CSCs) with doxycycline: implications for improving anti-angiogenic therapy” (LUNELLA BIOTECH, INC., priority 2017, dated 2022)
